This is an account of results in patent US5610140A, “Bradykinin receptor antagonists with neurokinin receptor blocking activity” (priority 1994, dated 1997).

“Also recorded” adds a separate entry of the source. Where two headings read alike, the source gives them in different places. Square brackets hold non-standard residues; d marks the D form. Peptide text beside a SMILES is read from it. * marks the point of attachment. X5 = C[C@@H](O)[C@H](NC(=O)CCCN1C(=O)CC(*)C1=O)C(=O)N[C@H](Cc1cn(C=O)c2ccccc12)C(=O)N[C@@H](Cc1ccccc1)C(=O)N(C)Cc1ccccc1; Hyp = O=C(O)[C@@H]1C[C@@H](O)CN1 A value given as a limit tells only on which side of the number the result lay.

In data set [1] the target is T1, Neurokinin 1 (NK1) receptor (Cavia porcellus, UniProt P30547). The conditions noted are these: for NK1 pA2: agonist substance P-O-methyl ester.
T1 sequence (P30547 whole entry): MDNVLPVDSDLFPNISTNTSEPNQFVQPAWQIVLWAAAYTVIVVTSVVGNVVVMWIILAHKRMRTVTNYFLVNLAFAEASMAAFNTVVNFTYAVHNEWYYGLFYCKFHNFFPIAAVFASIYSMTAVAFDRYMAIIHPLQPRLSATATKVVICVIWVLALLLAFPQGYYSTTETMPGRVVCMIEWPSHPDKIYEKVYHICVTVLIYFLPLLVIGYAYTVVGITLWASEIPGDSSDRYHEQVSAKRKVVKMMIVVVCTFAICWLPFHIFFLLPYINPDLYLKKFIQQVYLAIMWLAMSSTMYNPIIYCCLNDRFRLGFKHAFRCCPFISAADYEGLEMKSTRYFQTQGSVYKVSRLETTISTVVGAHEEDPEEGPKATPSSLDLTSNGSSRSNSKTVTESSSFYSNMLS
A further data set can be described thus: Water solubility. Format: physicochemical. The following applies: in the absence of organic co-solvents.
Another data set deals with NK1 receptors (Homo sapiens, UniProt P25103). The conditions noted are these: more potent than FK888; cited from earlier work.
NK1 receptors, sequence (P25103 whole entry): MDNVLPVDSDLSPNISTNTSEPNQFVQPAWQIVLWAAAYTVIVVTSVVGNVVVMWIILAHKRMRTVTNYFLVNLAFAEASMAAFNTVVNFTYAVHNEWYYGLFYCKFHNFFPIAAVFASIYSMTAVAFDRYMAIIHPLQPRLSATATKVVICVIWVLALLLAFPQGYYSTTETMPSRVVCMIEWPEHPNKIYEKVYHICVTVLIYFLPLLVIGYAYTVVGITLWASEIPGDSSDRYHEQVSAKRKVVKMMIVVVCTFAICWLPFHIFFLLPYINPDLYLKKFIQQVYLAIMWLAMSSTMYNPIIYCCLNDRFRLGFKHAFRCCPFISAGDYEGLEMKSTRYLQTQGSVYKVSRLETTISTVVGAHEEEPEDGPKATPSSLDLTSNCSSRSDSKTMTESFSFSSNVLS
Data set [2] is described as follows: In vitro stability in rat kidney cortical membranes. The format is in vitro ADME. The conditions noted are these: Rat Kidney membrane preparation diluted 1:100 with PBS. As to the method: (§1) Plasma samples were prepared by collection of whole blood from healthy male and female human volunteers or guinea pigs. Samples were collected into culture tubes containing sodium heparin, and were then spun at 4° C. at 2000 rpm for ten minutes. Supernatant fractions were removed by aspiration and stored in vials at -20° C. Rat or porcine lung and kidney cortical membranes were prepared using differential centrifugation. Membrane preparations were stored at -20° C. The test compound was diluted to 1 mM concentration in PBS (0.0132 M phosphate, 0.1454 M NaCl, pH 7.2). Ten microliters of this working solution were delivered into a series of Eppendorf tubes, followed by human or guinea pig plasma (90 uL) or PBS as a control blank, and incubated for various time periods. […] Supernatant fractions were removed, filtered through 0.22 uM filters (Millipore) and analyzed by HPLC (C18, 12-80% acetonitrile in water, both containing 0.1% trifluoroacetic acid, monitoring at 214 nm.
(§2) Porcine kidney preparations were diluted 1:10 with PBS; rat kidney preparations were diluted 1:100 with PBS. […] At various time points the reactions were quenched by the addition of 100 uL of ethanol, centrifuged and analyzed by HPLC as described above. The half-life for the disappearance of the HPLC peak was determined using the computer program ENZFIT (Elsevier). […]

Data set [3] is described as follows: In vitro stability in porcine kidney cortical membranes. The following applies: Pig Kidney membrane preparation diluted 1:10 with PBS. The format is in vitro ADME. As for the experimental part: as §1, §2
Data set [4] can be described thus: In vitro stability in human plasma. The format is in vitro ADME. As for the experimental part:
as §1, §2

Data set [5] addresses T1, Neurokinin 1 (NK1) receptor. Put plainly: cell-based.
The conditions of data set [6]: as reported in the literature; cited from earlier work.
The target of data set [7] is T2, Bradykinin 2 (BK2) receptor (Rattus norvegicus, UniProt P25023).
T2 sequence (P25023 1-396): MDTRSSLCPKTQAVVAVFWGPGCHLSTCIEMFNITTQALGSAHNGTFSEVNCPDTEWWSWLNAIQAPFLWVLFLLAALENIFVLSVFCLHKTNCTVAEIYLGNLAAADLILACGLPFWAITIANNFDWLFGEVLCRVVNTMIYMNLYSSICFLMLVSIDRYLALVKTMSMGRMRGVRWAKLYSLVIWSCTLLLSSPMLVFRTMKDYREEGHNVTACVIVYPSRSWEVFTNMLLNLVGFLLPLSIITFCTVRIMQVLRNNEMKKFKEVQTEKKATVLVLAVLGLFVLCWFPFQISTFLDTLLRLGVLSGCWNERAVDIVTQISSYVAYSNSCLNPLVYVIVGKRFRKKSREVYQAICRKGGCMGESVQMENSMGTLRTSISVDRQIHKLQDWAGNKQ

Data set [8] addresses T2, Bradykinin 2 (BK2) receptor. As to the kind of experiment: cell-based.
For data set [9] the following is noted: cited from earlier work.
In data set [10] the target is T3, isolated guinea pig lung membrane (Cavia porcellus, UniProt P30547).
T3 construct: host or cells: guinea pig lung membrane
T3 sequence (P30547 whole entry): as the sequence (P30547 whole entry) above
The following applies: read-out: binding constant; cited from earlier work.

Setting [11] is: guinea pig ileum, recovery of agonist response after wash-off.

For `CN(Cc1ccccc1)C(=O)[C@H](Cc1ccccc1)NC(=O)[C@H](CCCCN)NC(=O)c1c[nH]c2ccccc12` [CP-0533], the “NK1 pA2” value in [1] (guinea pig ileum) was 6.3. In addition, the “NK1 % recovery (wash-off)” value in data set [1] (setting [11]) came to 73%. Besides, in “Water solubility”, the water solubility entry was “poor solubility in water; also recorded: minimal water solubility”.
`COc1ccccc1CN[C@H]1CCCN[C@H]1c1ccccc1` [CP-99994]: the “potency relative to FK888 in binding studies” value on NK1 receptors was 10 times.
For `NC(N)=NCCC[C@H](NC(=O)[C@H](Cc1ccccc1)NC(=O)[C@@H]1CCCN1C(=O)[C@H](CO)NC(=O)[C@H](Cc1ccccc1)NC(=O)CNC(=O)[C@@H]1CCCN1C(=O)[C@@H]1CCCN1C(=O)[C@@H](N)CCCN=C(N)N)C(=O)O` [Bradykinin] (H-RPPGFSPFR-OH), the Half-life in data set [2] was determined as 7.8 min; in data set [3], 3 min; in data set [4] it was 27 min.
`C[C@@H](O)[C@H](NC(=O)CCCCCN1C(=O)CC(SCCO)C1=O)C(=O)N[C@H](Cc1cn(C=O)c2ccccc12)C(=O)N[C@@H](Cc1ccccc1)C(=O)N(C)Cc1ccccc1` (some centres unmarked) [CP-0528]: in data set [1], the “NK1 % recovery (wash-off)” value came to 80%. Moreover, in [5], the Kb is 316 nM.
As for `CN(Cc1ccccc1)C(=O)[C@H](Cc1ccc2ccccc2c1)NC(=O)[C@@H]1C[C@@H](O)CN1C(=O)c1cn(C)c2ccccc12` [FK888], in data set [6], the water solubility result is given as “poor water solubility”.
Regarding `CC(C)C[C@H](NC(=O)[C@@H](Cc1ccccc1)NC(=O)[C@H](CSC1CC(=O)N(CCCC(=O)N[C@H](C(=O)N[C@H](Cc2cn(C=O)c3ccccc23)C(=O)N[C@@H](Cc2ccccc2)C(=O)N(C)Cc2ccccc2)[C@@H](C)O)C1=O)NC(=O)[C@H](Cc1ccccc1)NC(=O)CNC(=O)[C@@H]1C[C@@H](O)CN1C(=O)[C@@H]1CCCN1C(=O)[C@H](CCCNC(=N)N)NC(=O)[C@H](N)CCCNC(=N)N)C(=O)N[C@@H](CCCNC(=N)N)C(=O)O` (some centres unmarked) [Compound 2] (H-[dR]RP[Hyp]GFC(X5)[dF]LR-OH), the “BK2 % Recovery (wash-off)” value in data set [7] amounted to 20%. In data set [1], the “NK1 % recovery (wash-off)” value came to 48%. The Kb in data set [5] was 126 nM; in data set [8], 6.31 nM.
As to `CC(C)C[C@H](NC(=O)[C@@H](Cc1ccccc1)NC(=O)[C@H](CSC1CC(=O)N(CCCCCCN2C(=O)CC(SC[C@H](NC(=O)[C@H](Cc3ccccc3)NC(=O)CNC(=O)[C@@H]3C[C@@H](O)CN3C(=O)[C@@H]3CCCN3C(=O)[C@H](CCCNC(=N)N)NC(=O)[C@H](N)CCCNC(=N)N)C(=O)N[C@H](Cc3ccccc3)C(=O)N[C@@H](CC(C)C)C(=O)N[C@@H](CCCNC(=N)N)C(=O)O)C2=O)C1=O)NC(=O)[C@H](Cc1ccccc1)NC(=O)CNC(=O)[C@@H]1C[C@@H](O)CN1C(=O)[C@@H]1CCCN1C(=O)[C@H](CCCNC(=N)N)NC(=O)[C@H](N)CCCNC(=N)N)C(=O)N[C@@H](CCCNC(=N)N)C(=O)O` (some centres unmarked) [CP-0127] (HELM PEPTIDE1{[dR].R.P.[Hyp].G.F.C.[dF].L.R}|PEPTIDE2{[dR].R.P.[Hyp].G.F.C.[dF].L.R}|CHEM1{[O=C1CC([*:1])C(=O)N1CCCCCCN1C(=O)CC([*:2])C1=O]}$PEPTIDE1,CHEM1,7:R3-1:R1|PEPTIDE2,CHEM1,7:R3-1:R2$$$V2.0), the Half-life in data set [2] was 39.6 min; in data set [3], greater than 360 min; in data set [4], 165 min.
On to `CC(=O)N[C@H](C(=O)N[C@H](Cc1c[nH]c2ccccc12)C(=O)N[C@@H](Cc1ccccc1)C(=O)N(C)Cc1ccccc1)[C@@H](C)O` [FR113680, Ac-Thr-D-Trp-Phe-N(CH3)Bn, reference compound], for which, in [9], the in vivo stability entry is on record as “moderate in vivo stability”. In data set [1], the “NK1 % recovery (wash-off)” value is on record as 53%. The same molecule gave a Kb in data set [5] of 100 nM. In addition, in data set [10], the Ki is 5.8 nM.
For the molecule `CN(Cc1ccccc1)C(=O)[C@H](Cc1ccc2ccccc2c1)NC(=O)[C@H](CCCCN)NC(=O)c1c[nH]c2ccccc12` [CP-0535], the “NK1 pA2” value in [1] (guinea pig ileum) is given as 7.5. Also, in data set [1] (setting [11]), the “NK1 % recovery (wash-off)” value is given as 41%. In “Water solubility”, the water solubility result is recorded as “poor water solubility”.
Take `C[C@@H](O)[C@H](NC(=O)CCCN1C(=O)CC(SCCO)C1=O)C(=O)N[C@H](Cc1cn(C=O)c2ccccc12)C(=O)N[C@@H](Cc1ccccc1)C(=O)N(C)Cc1ccccc1` (some centres unmarked) [CP-0529]: in data set [1], the “NK1 % recovery (wash-off)” value is on record as 55%. Also, in [5], the Kb is 126 nM.
